Laboratory results taken from patent US20170056373A1, “GHRELIN O-ACYLTRANSFERASE INHIBITORS” (SYRACUSE UNIVERSITY, priority 2015, published 2017).
Ends that are not written are not given here. * marks the point of attachment. acrylodan = CN(C)c1ccc2cc(C(=O)CC*)ccc2c1; Dansyl = CN(C)c1cccc2c(S(=O)(=O)*)cccc12

Key:
hGOAT [1] = target: T1, hGOAT (Homo sapiens, UniProt Q96T53); assay: fluorescent ghrelin peptide substrates assayed for activity with hGOAT (HPLC with fluorescence detection); type: biochemical; settings: peptide as substrate for octanoylation by hGOAT
T1 construct: His10 (C); made in house; host or cells: Sf9 insect cells (baculovirus), membranes
T1 sequence (Q96T53 1-435): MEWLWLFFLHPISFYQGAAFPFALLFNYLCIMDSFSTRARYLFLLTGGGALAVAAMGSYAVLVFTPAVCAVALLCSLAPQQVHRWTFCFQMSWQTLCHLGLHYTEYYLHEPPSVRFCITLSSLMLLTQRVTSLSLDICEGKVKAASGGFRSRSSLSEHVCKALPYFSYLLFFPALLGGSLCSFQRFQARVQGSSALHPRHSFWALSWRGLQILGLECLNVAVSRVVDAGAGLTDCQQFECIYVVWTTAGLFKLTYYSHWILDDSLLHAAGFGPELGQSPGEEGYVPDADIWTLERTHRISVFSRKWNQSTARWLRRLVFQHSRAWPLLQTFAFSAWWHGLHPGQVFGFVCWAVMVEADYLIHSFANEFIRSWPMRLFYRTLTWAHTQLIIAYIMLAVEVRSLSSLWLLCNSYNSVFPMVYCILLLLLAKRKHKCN
Protocol: With the peptide substrates, the addition of the hydrophobic octanoyl group upon serine acylation at position 3 leads to an increase in retention time in reverse-phase (RP) HPLC. The panel of fluorescent ghrelin peptide substrates was assayed for activity with hGOAT using HPLC coupled with fluorescence detection of the fluorescently labeled peptides. All reactions with hGOAT-His10 membranes were performed in parallel with mock membranes to account for nonspecific peptide modifications.
(§1) An assay for human ghrelin O-acyltransferase activity was performed using hGOAT expressed from insect (Sf9) cells using standard baculoviral methods and a fluorescent 6-mer peptide synthesized by a single step reaction followed by high performance liquid chromatography (HPLC) purification. The assay was performed at room temperature using hGOAT membrane protein, octanoyl-CoA, a fluorescent ghrelin peptide, a buffer, and a detergent. Activity may be measure by detecting the presence of any octanoylation of the ghrelin peptide. For example, the presence of octanoylated ghrelin peptide may be confirmed by HPLC or by using a fluorescent system whose fluorescence will increase as a result of octanoylation of the ghrelin peptide.

hGOAT [2] = target: T1, hGOAT; assay: in vitro hGOAT activity assay (inhibition of ghrelin peptide octanoylation, HPLC/fluorescence); type: biochemical; settings: for IC50: hGOAT membrane fraction from Sf9 cells, in vitro octanoylation assay
Protocol: as §1
A library of potential inhibitors was screened using the assay of the present invention. More particularly, membrane fractions from Sf9 cells expressing hGOAT were thawed on ice and homogenized by passing through an 18-gauge needle ten times. Membrane fraction containing ˜50-100 μg membrane protein (determined by Bradford assay) was preincubated for 30 minutes at room temperature with 1 μM MAFP, 500 μM octanoyl CoA, 50 mM HEPES (pH=7.0), and 1 μl Diversity Set compound dissolved in DMSO for a final inhibitor concentration of either 10 or 100 μM for primary screening. Reactions were initiated with the addition of 1.5 μM fluorescent peptide substrate, incubated at room temperature in the dark for 3 hours, then stopped with 50 μl 20% acetic acid in isopropanol. The solutions were clarified by protein precipitation with 16.7 μl 20% trichloroacetic acid, followed by centrifugation (1,000×g, 1 m). The resulting supernatant was analyzed by reverse phase HPLC.
Reactions followed the above procedure, and included inhibitor concentrations of 1, 5, 10, 50, or 100 μM, as well as a DMSO-only vehicle control. Compounds determined to act as hGOAT inhibitors are seen in FIGS. 4 through 6.

mouse isoform of GOAT = target: T2, mouse isoform of GOAT (Mus musculus, UniProt P0C7A3); assay: cell-based inhibition of ghrelin octanoylation, acyl ghrelin ELISA in GOAT/preproghrelin transfected HEK293FT cells; settings: stably transfected HEK293FT cells, 24 hours incubation, read-out: cellular IC50, reduction of acyl ghrelin concentrations
T2 construct: expressed in transfected cells; host or cells: HEK293FT, stably transfected with the phPPG-mGOAT plasmid (gift from Dr. Jef Boeke's laboratory)
T2 sequence (P0C7A3 1-435): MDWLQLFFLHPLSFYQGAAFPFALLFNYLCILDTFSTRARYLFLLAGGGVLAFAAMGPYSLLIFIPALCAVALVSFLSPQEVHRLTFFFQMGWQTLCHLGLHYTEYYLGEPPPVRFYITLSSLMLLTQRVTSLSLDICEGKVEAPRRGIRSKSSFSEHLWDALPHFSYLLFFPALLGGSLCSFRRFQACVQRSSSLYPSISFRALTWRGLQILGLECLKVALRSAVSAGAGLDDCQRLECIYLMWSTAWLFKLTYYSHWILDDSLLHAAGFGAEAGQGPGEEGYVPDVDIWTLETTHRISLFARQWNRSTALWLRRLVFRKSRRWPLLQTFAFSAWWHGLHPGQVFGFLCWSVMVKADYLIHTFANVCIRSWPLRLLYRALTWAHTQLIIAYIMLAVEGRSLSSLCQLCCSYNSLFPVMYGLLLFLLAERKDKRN
Protocol: Stably transfected GOAT/Preproghrelin HEK 293FT cells were generated using the phPPG-mGOAT plasmid (a gift from Dr. Jef Boeke's laboratory) containing human preproghrelin (hPPG) and mouse ghrelin O-acyltransferase (mGOAT) connected by an intervening encephalomyocarditis virus internal ribosome entry site (ECMV-IRES) under puromycin selection as previously described. Cells were transfected using Lipofectamine 2000 (Invitrogen) at a 2 μL to 1 μg DNA ratio in 10 cm tissue culture-treated dishes according to manufacturer's protocol. The 293FT-hPPG-mGOAT cells were cultured in DMEM medium (Corning) supplemented with 10% inactivated fetal bovine serum, 1% penicillin/streptomycin, 1 ug/mL puromycin, and 0.01% octanoic acid and routinely passaged 2-3 times per week. A clonal line was chosen through serial dilution into a 96-well plate.
Cell density and number were optimized for detection of acyl ghrelin via ELISA (EMD Millipore Corp). 293FT-hPPG-mGOAT clonal cells were plated in the late afternoon in 24-plates at 2×10^5 cells/well. Cells were incubated overnight at 37° C., 5% CO2 and treated the next morning with inhibitors or vehicle (DMSO) in triplicate. Cells were treated for 24 hours and harvested after medium aspiration using 40 μL/well trypsin-EDTA (0.25%, Corning) containing 5 μM methoxy arachidonyl flourophosphonate (MAFP). […]

## 1-Dansyl: fluorescent ghrelin mimic peptide substrate, Dansyl-GSSFLS (SEQ. ID No. 2) (ends and bridges not checked)
hGOAT [1]
  Active with hGOAT?: not modified by hGOAT and No

## CCNC(=O)[C@]12CCC(C)(C)C[C@H]1[C@H]1C(=O)C=C3[C@@]4(C)C=C(C#N)C(=O)C(C)(C)[C@@H]4CC[C@@]3(C)[C@]1(C)CC2 [CDDO-EA]
hGOAT [2]
  IC50: 8 ± 4 µM
Mouse isoform of GOAT
  IC50: 0.32 ± 0.15 µM

## CC1(C)CC[C@]2(C(=O)n3ccnc3)CC[C@]3(C)[C@H](C(=O)C=C4[C@@]5(C)C=C(C#N)C(=O)C(C)(C)[C@@H]5CC[C@]43C)[C@@H]2C1 [CDDO-Im, 1[2-cyano-3,12-dioxooleana-1,9-dien-28-oyl]imidazole]
hGOAT [2]
  IC50: 38 ± 6 µM

## COC(=O)[C@]12CCC(C)(C)C[C@H]1[C@H]1C(=O)C=C3[C@@]4(C)C=C(C#N)C(=O)C(C)(C)[C@@H]4CC[C@@]3(C)[C@]1(C)CC2 [CDDO-Me, methyl 2-cyano-3,12-dioxooleana-1,9(11)dien-28-oate]
hGOAT [2]; in vitro hGOAT activity assay
  inhibitory activity against hGOAT-catalyzed ghrelin octanoylation (in words): exhibits inhibitory activity against hGOAT
Mouse isoform of GOAT
  IC50: 0.035 ± 0.01 µM

## AcDan-2: acrylodan-labeled ghrelin mimic peptide substrate, GCAcDanSFLS (SEQ. ID No. 3) (GC(acrylodan)SFLS; ends and bridges not checked)
hGOAT [1]
  Active with hGOAT?: not modified by hGOAT and No

## AcDan-5: acrylodan-labeled ghrelin mimic peptide substrate, GSSFCAcDanS (SEQ. ID No. 4) (GSSFC(acrylodan)S; ends and bridges not checked)
hGOAT [1]
  Active with hGOAT?: yielded the octanoylated peptide and Yes

## AcDan-6: acrylodan-labeled ghrelin mimic peptide substrate, GSSFLCAcDan (SEQ. ID No. 5) (GSSFLC(acrylodan)-NH2; ends and bridges not checked)
hGOAT [1]
  Active with hGOAT?: yielded the octanoylated peptide and Yes
